Experimental data from patent US7803930B2, “Antisense modulation of apolipoprotein B-expression” (Isis Pharmaceuticals, Inc., priority 2002, dated 2010).
In the oligonucleotide strings, read from the 5' end, every base follows the letter of its sugar. An asterisk marks phosphorothioate; unmarked linkages are phosphodiester. Other units and linkages are bracketed, terminal groups are in braces. A string of capitals states the bases alone. e = 2'-O-(2-methoxyethyl) (MOE); [5mC] = 5-methylcytosine; d = 2'-deoxy (DNA)

System: human apolipoprotein B mRNA
Experiment: Inhibition of human apolipoprotein B mRNA levels in HepG2 cells, quantitative real-time PCR
Type: cell-based
Conditions: HepG2 cells treated with 150 nM of compound; averages from two experiments; quantitative real-time PCR
In short: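 Apolipoprotein B transcript was quantified by one-step TaqMan RT-PCR, normalized to GAPDH or RiboGreen RNA, and expressed as percent inhibition against an untreated-sample standard curve. HepG2 cells were harvested 16-24 h after oligonucleotide exposure, which was delivered with 3.75 μg/mL Lipofectin over 4-7 h at 80% confluency.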

Row | Substance | % INHIB (inhibition of human apolipoprotein B mRNA levels) [%]
1 | 281599 (eT*eT*e[5mC]*e[5mC]*eA*dA*dT*dG*dA*d[5mC]*d[5mC]*d[5mC]*dG*d[5mC]*dA*eG*eA*eA*eT*e[5mC]; antisense) [compound 281599] | 74
2 | 301018 (e[5mC]*eT*e[5mC]*e[5mC]*eT*d[5mC]*dA*dG*d[5mC]*dG*dG*d[5mC]*dA*dG*d[5mC]*eA*eA*e[5mC]*e[5mC]*eG; antisense) [compound 301018] | 45
3 | 301039 (eT*eG*eG*eT*eG*d[5mC]*d[5mC]*dA*dG*d[5mC]*dT*dT*dT*dG*dG*eT*eG*e[5mC]*eA*eG; antisense) [compound 301039] | 73
4 | 270994 (antisense eG*e[5mC]*e[5mC]*eT*eT*dT*dG*dA*dT*dG*dA*dG*dA*dG*d[5mC]*eA*eA*eG*eT*eG) [compound 270994] | 51
5 | 270991 (antisense eG*eA*eG*e[5mC]*eA*dG*dT*dT*dT*d[5mC]*d[5mC]*dA*dT*dA*d[5mC]*eA*e[5mC]*eG*eG*eT) [compound 270991] | 21
6 | 271010 (antisense eT*eG*eT*e[5mC]*eA*d[5mC]*dA*dA*d[5mC]*dT*dT*dA*dG*dG*dT*eG*eG*e[5mC]*e[5mC]*e[5mC]) [compound 271010] | 57
7 | 271011 (antisense eG*eT*e[5mC]*eT*eG*dG*d[5mC]*dA*dA*dT*d[5mC]*d[5mC]*d[5mC]*dA*dT*eG*eT*eT*e[5mC]*eT) [compound 271011] | 51
8 | 281601 (antisense eA*eG*e[5mC]*e[5mC]*eT*dG*dG*dA*dT*dG*dG*d[5mC]*dA*dG*d[5mC]*eT*eT*eT*e[5mC]*eT) [compound 281601] | 83
9 | 270986 (antisense e[5mC]*eT*e[5mC]*e[5mC]*eA*d[5mC]*dT*dG*dG*dA*dA*d[5mC]*dT*d[5mC]*dT*e[5mC]*eA*eG*e[5mC]*e[5mC]) [compound 270986] | 0
10 | 271039 (eT*eA*eG*eA*eG*dG*d[5mC]*dT*dA*dA*d[5mC]*dG*dT*dA*d[5mC]*e[5mC]*eA*eT*e[5mC]*eT; antisense) [compound 271039] | 4
11 | 301026 (eA*eT*eA*eT*eA*dG*dG*d[5mC]*dA*dG*dT*dT*dT*dG*dA*eA*eT*eT*eT*eT; antisense) [compound 301026] | 57
12 | 271012 (antisense e[5mC]*e[5mC]*e[5mC]*eA*e[5mC]*dA*dG*dA*d[5mC]*dT*dT*dG*dA*dA*dG*eT*eG*eG*eA*eG) [compound 271012] | 55
13 | 271003 (antisense eG*eA*e[5mC]*eA*e[5mC]*d[5mC]*dA*dT*d[5mC]*dA*dG*dG*dA*dA*d[5mC]*eT*eT*eG*eA*e[5mC]) [compound 271003] | 46
14 | 281634 (antisense e[5mC]*eT*e[5mC]*eT*e[5mC]*dG*dA*dT*dT*dA*dA*d[5mC]*dT*d[5mC]*dA*eT*eG*eG*eA*e[5mC]) [compound 281634] | 81
15 | 270992 (antisense e[5mC]*e[5mC]*e[5mC]*eT*eT*d[5mC]*d[5mC]*dT*d[5mC]*dG*dT*d[5mC]*dT*dT*dG*eA*e[5mC]*eG*eG*eT) [compound 270992] | 8
16 | 281633 (antisense eG*eA*eT*eT*e[5mC]*dT*dG*dA*dT*dT*dT*dG*dG*dT*dA*e[5mC]*eT*eT*eA*eG) [compound 281633] | 73
17 | 281637 (antisense eA*eG*eA*eG*e[5mC]*d[5mC]*dT*dG*dA*dA*dG*dA*d[5mC]*dT*dG*eA*e[5mC]*eT*eT*e[5mC]) [compound 281637] | 74
18 | 301015 (e[5mC]*eA*eA*e[5mC]*e[5mC]*dG*dA*dG*dA*dA*dG*dG*dG*d[5mC]*dA*e[5mC]*eT*e[5mC]*eA*eG; antisense) [compound 301015] | 53
19 | 271018 (antisense eA*eT*eG*eT*eG*dA*dA*dA*d[5mC]*dT*dT*dG*dT*d[5mC]*dT*e[5mC]*eT*e[5mC]*e[5mC]*e[5mC]) [compound 271018] | 44
20 | 271035 (eT*e[5mC]*eG*eT*eA*d[5mC]*dT*dG*dT*dG*d[5mC]*dT*d[5mC]*d[5mC]*d[5mC]*eA*eG*eA*eG*eG; antisense) [compound 271035] | 23

Same assay, conditions: HepG2 cells; 50 nm oligonucleotide; variable deoxy gap position

Row | Substance | % INHIB 50 nm [%]
21 | 308635 (GCCTCAGTCTGCTTCGCACC; 10-10-0 MOE gapmer, phosphorothioate, chemistry not fully specified) [compound 308635] | 69
22 | 308662 (antisense TGGTAGCCTCAGTCTGCTTC; 8-10-2 2'-MOE gapmer, phosphorothioate, chemistry not fully specified) [compound 308662] | 76
23 | 308652 (antisense AGGTTACCAGCCACATGCAG; 7-10-3 2'-MOE gapmer, phosphorothioate, chemistry not fully specified) [compound 308652] | 73
24 | 308656 (antisense GCCTCAGTCTGCTTCGCACC; 8-10-2 2'-MOE gapmer, phosphorothioate, chemistry not fully specified) [compound 308656] | 37

Same assay, conditions: HepG2 cells; 150 nm oligonucleotide; variable deoxy gap position

Row | Substance | % INHIB 150 nm [%]
25 | 308635 (GCCTCAGTCTGCTTCGCACC; 10-10-0 MOE gapmer, phosphorothioate, chemistry not fully specified) [compound 308635] | 93
26 | 308662 (antisense TGGTAGCCTCAGTCTGCTTC; 8-10-2 2'-MOE gapmer, phosphorothioate, chemistry not fully specified) [compound 308662] | 83
27 | 308652 (antisense AGGTTACCAGCCACATGCAG; 7-10-3 2'-MOE gapmer, phosphorothioate, chemistry not fully specified) [compound 308652] | 95
28 | 308656 (antisense GCCTCAGTCTGCTTCGCACC; 8-10-2 2'-MOE gapmer, phosphorothioate, chemistry not fully specified) [compound 308656] | 97

Same assay, conditions: HepG2 cells; human apolipoprotein B mRNA; oligonucleotides targeting genomic sequence SEQ ID NO 334; averages from two experiments

Row | Substance | % INHIB [%]
29 | 301057 (eT*eG*e[5mC]*eA*eG*dA*d[5mC]*dT*dA*dG*dG*dA*dG*dT*dG*eA*eA*eA*eG*eT; antisense) [compound 301057] | 30
30 | 301210 (antisense e[5mC]*eT*eA*eT*eG*dG*d[5mC]*dT*dG*dA*dG*d[5mC]*dT*dT*dG*e[5mC]*e[5mC]*eT*eA*eT) [compound 301210] | 33
31 | 301049 (eT*e[5mC]*eT*eG*eT*dA*dA*dG*dA*d[5mC]*dA*dG*dG*dA*dG*eA*eA*eA*eG*eA; antisense) [compound 301049] | 41
32 | 301181 (antisense eA*eT*e[5mC]*eT*e[5mC]*dT*d[5mC]*dT*dG*dT*d[5mC]*d[5mC]*dT*d[5mC]*dA*eT*e[5mC]*eT*eT*e[5mC]) [compound 301181] | 28
33 | 301132 (eT*e[5mC]*eA*e[5mC]*eA*d[5mC]*dT*dT*dA*d[5mC]*d[5mC]*dT*d[5mC]*dG*dA*eT*eG*eA*eG*eG; antisense) [compound 301132] | 29
34 | 301097 (antisense eG*eG*eT*eA*eG*d[5mC]*d[5mC]*dA*dG*dA*dA*d[5mC]*dA*d[5mC]*d[5mC]*eA*eG*eT*eG*eT) [compound 301097] | 50
35 | 301206 (antisense eG*eT*eT*eT*eT*d[5mC]*dA*dA*dA*dA*dG*dG*dT*dA*dT*eA*eA*eG*eG*eT) [compound 301206] | 28
36 | 301186 (antisense e[5mC]*e[5mC]*eT*eT*e[5mC]*dT*dT*dT*dA*d[5mC]*d[5mC]*dT*dT*dA*dG*eG*eT*eG*eG*e[5mC]) [compound 301186] | 37
37 | 301213 (antisense eT*eA*eG*eA*eA*d[5mC]*d[5mC]*dA*dT*dG*dT*dT*dT*dG*dG*eT*e[5mC]*eT*eT*e[5mC]) [compound 301213] | 35
38 | 301060 (e[5mC]*e[5mC]*eA*eG*e[5mC]*dT*d[5mC]*dA*dA*d[5mC]*d[5mC]*dT*dG*dA*dG*eA*eA*eT*eT*e[5mC]; antisense) [compound 301060] | 17
39 | 301145 (eA*eA*eG*eG*eA*d[5mC]*d[5mC]*dT*dT*d[5mC]*dA*dG*d[5mC]*dA*dA*eA*eG*eG*eT*eA; antisense) [compound 301145] | 36

Same assay, conditions: Table 1; HepG2 cells, 150 nM; averages from two experiments

Row | Substance | % INHIB [%]
40 | 147780 (antisense e[5mC]*e[5mC]*eG*e[5mC]*eA*dG*dG*dT*d[5mC]*d[5mC]*d[5mC]*dG*dG*dT*dG*eG*eG*eA*eA*eT) [compound 147780] | 40
41 | 147823 (antisense eT*eG*e[5mC]*e[5mC]*e[5mC]*dT*dG*d[5mC]*dA*dG*d[5mC]*dT*dT*d[5mC]*dA*e[5mC]*eT*eG*eA*eA) [compound 147823] | 19

Same assay, conditions: Table 11 gene walk; HepG2 cells, 50 nM; averages from two experiments

Row | Substance | % INHIB 50 nm [%]
42 | 308620 (eT*eG*eG*eT*eA*dG*dG*d[5mC]*dT*d[5mC]*d[5mC]*dT*dT*dT*dT*eA*eG*eG*eT*eT; antisense) [compound 308620] | 69
43 | 308616 (eT*e[5mC]*e[5mC]*eT*eT*dT*dT*dA*dG*dG*dT*dT*dA*d[5mC]*d[5mC]*eA*eG*e[5mC]*e[5mC]*eA; antisense) [compound 308616] | 39
44 | 308589 (antisense e[5mC]*eT*eT*e[5mC]*eT*dG*d[5mC]*dT*dT*dG*dA*dG*dT*dT*dA*e[5mC]*eA*eA*eA*e[5mC]) [compound 308589] | 20

Same assay, conditions: Table 11 gene walk; HepG2 cells, 150 nM; averages from two experiments

Row | Substance | % INHIB 150 nm [%]
45 | 308620 (eT*eG*eG*eT*eA*dG*dG*d[5mC]*dT*d[5mC]*d[5mC]*dT*dT*dT*dT*eA*eG*eG*eT*eT; antisense) [compound 308620] | 88
46 | 308616 (eT*e[5mC]*e[5mC]*eT*eT*dT*dT*dA*dG*dG*dT*dT*dA*d[5mC]*d[5mC]*eA*eG*e[5mC]*e[5mC]*eA; antisense) [compound 308616] | 81
47 | 308589 (antisense e[5mC]*eT*eT*e[5mC]*eT*dG*d[5mC]*dT*dT*dG*dA*dG*dT*dT*dA*e[5mC]*eA*eA*eA*e[5mC]) [compound 308589] | 94

Same assay, conditions: Table 15; HepG2 cells, 150 nM; averages from two experiments

Row | Substance | % INHIB [%]
48 | 301221 (antisense e[5mC]*eT*eA*eG*eA*dG*dG*dT*dT*dT*dT*dG*d[5mC]*dT*dG*eT*eG*e[5mC]*e[5mC]*eA) [compound 301221] | 61

Same assay, conditions: Table 17 variable gap; HepG2 cells, 50 nM; averages from three experiments

Row | Substance | % INHIB 50 nm [%]
49 | 308636 (GCCTCAGTCTGCTTCGCGCC; all C 5-methyl, all phosphorothioate, sugars by position not given here; further chemistry not fully specified) [compound 308636] | 81

Same assay, conditions: Table 17 variable gap; HepG2 cells, 150 nM; averages from three experiments

Row | Substance | % INHIB 150 nm [%]
50 | 308636 (GCCTCAGTCTGCTTCGCGCC; all C 5-methyl, all phosphorothioate, sugars by position not given here; further chemistry not fully specified) [compound 308636] | 91
